# According to ChEMBL document CHEMBL4138122, “Azaphenothiazines - promising phenothiazine derivatives. An insight into nomenclature, synthesis, structure elucidation and biological properties” (Eur J Med Chem, 2017):
# What was measured:
# [1] = tested on: Mycobacterium tuberculosis; assay: Antitubercular activity against Mycobacterium tuberculosis H37Rv; format: functional
# [2] = tested on: Mycobacterium tuberculosis; assay: Antitubercular activity against Mycobacterium tuberculosis H37Rv assessed as inhibition of bacterial growth at 6.25 ug/ml; format: functional; details: read-out: GI
# [3] = tested on: Mycobacterium tuberculosis; assay: Antitubercular activity against Mycobacterium tuberculosis; format: functional
# UO-31 [4] = assay: Growth inhibition of human UO31 cells at 10 uM; format: functional; details: read-out: GI
# SK-MEL-2 = assay: Growth inhibition of human SK-MEL-2 cells at 10 uM; format: functional; details: read-out: GI
# UO-31 [5] = assay: Cytotoxicity against human UO31 cells assessed as cell growth inhibition at 2.1 ug/ml after 48 hrs by SRB assay; format: functional; details: UO-31, 48 h, read-out: GI
# EKVX = assay: Cytotoxicity against human EKVX cells assessed as cell growth inhibition at 2.1 ug/ml after 48 hrs by SRB assay; format: functional, cell-based
# HCT-116 [6] = assay: Cytotoxicity against human HCT116 cells assessed as cell growth inhibition after 48 hrs by SRB assay; format: functional, cell-based; details: HCT-116, 48 h
# PC-3 [7] = assay: Cytotoxicity against human PC3 cells assessed as cell growth inhibition after 48 hrs by SRB assay; format: functional, cell-based; details: PC-3, 48 h
# SK-MEL-5 = assay: Cytotoxicity against human SK-MEL-5 cells assessed as cell growth inhibition after 48 hrs by SRB assay; format: functional, cell-based; details: SK-MEL-5, 48 h
# CCRF-CEM = assay: Cytotoxicity against human CCRF-CEM cells assessed as cell growth inhibition after 48 hrs by SRB assay; format: functional, cell-based
# MOLT-4 = assay: Cytotoxicity against human MOLT4 cells assessed as cell growth inhibition after 48 hrs by SRB assay; format: functional, cell-based; details: MOLT-4, 48 h
# SNB-75 = assay: Cytotoxicity against human SNB75 cells assessed as cell growth inhibition after 48 hrs by SRB assay; format: functional, cell-based; details: SNB-75, 48 h
# SF-295 = assay: Cytotoxicity against human SF295 cells assessed as cell growth inhibition after 48 hrs by SRB assay; format: functional, cell-based; details: SF-295, 48 h
# NCI-H460 = assay: Cytotoxicity against human NCI-H460 cells assessed as cell growth inhibition after 48 hrs by SRB assay; format: functional, cell-based; details: NCI-H460, 48 h
# HOP-92 = assay: Cytotoxicity against human HOP92 cells assessed as cell growth inhibition after 48 hrs by SRB assay; format: functional, cell-based; details: HOP-92, 48 h
# IGROV-1 = assay: Cytotoxicity against human IGROV1 cells assessed as cell growth inhibition after 48 hrs by SRB assay; format: functional, cell-based; details: IGROV-1, 48 h
# OVCAR-4 = assay: Cytotoxicity against human OVCAR4 cells assessed as cell growth inhibition after 48 hrs by SRB assay; format: functional, cell-based; details: OVCAR-4, 48 h
# OVCAR-5 = assay: Cytotoxicity against human OVCAR5 cells assessed as cell growth inhibition after 48 hrs by SRB assay; format: functional, cell-based; details: OVCAR-5, 48 h
# 786-0 = assay: Cytotoxicity against human 786-O cells assessed as cell growth inhibition after 48 hrs by SRB assay; format: functional, cell-based; details: 786-0, 48 h
# [8] = Inhibition of LTB4 formation in rat polymorphonuclear leukocytes preincubated for 2 mins followed by A-23187 addition after 4 mins; format: functional, cell-based
# Trachea = assay: Inhibition of egg albumin antigen challenge-induced contraction response in methacholine-primed guinea pig trachea at 10 ug/ml; format: functional; details: Cavia porcellus
# Rattus norvegicus = assay: Inhibition of PAF-induced hyperalgesia in Sprague-Dawley rat at 10 mg/kg, po dosed 30 mins prior to PAF challenge and measured 1 to 4 hours post PAF challenge; format: functional
# MCF7 [9] = assay: Growth inhibition of human MCF7 cells at 10 uM; format: functional; details: read-out: GI
# T47D = assay: Growth inhibition of human T47D cells at 10 uM; format: functional; details: read-out: GI
# UO-31 [10] = assay: Cytotoxicity against human UO31 cells assessed as cell growth inhibition at 3.2 ug/ml after 48 hrs by SRB assay; format: functional; details: UO-31, 48 h, read-out: GI
# PBMC = assay: Inhibition of anti-CD3 induced human PBMC proliferation at 1 ug/ml; format: functional
# COLO 205 = assay: Cytotoxicity against human COLO205 cells assessed as cell growth inhibition after 48 hrs by SRB assay; format: functional, cell-based; details: COLO 205, 48 h
# RXF 393 = assay: Cytotoxicity against human RXF393 cells assessed as cell growth inhibition after 48 hrs by SRB assay; format: functional, cell-based; details: RXF 393, 48 h
# ACHN = assay: Cytotoxicity against human ACHN cells assessed as cell growth inhibition after 48 hrs by SRB assay; format: functional, cell-based
# HL-60 = assay: Cytotoxicity against human HL60 cells assessed as cell growth inhibition after 48 hrs by SRB assay; format: functional, cell-based; details: HL-60, 48 h
# Hs-578T = assay: Cytotoxicity against human Hs578T cells assessed as cell growth inhibition after 48 hrs by SRB assay; format: functional, cell-based
# M14 = assay: Cytotoxicity against human M14 cells assessed as cell growth inhibition after 48 hrs by SRB assay; format: functional, cell-based; details: M14, 48 h
# SF-539 = assay: Cytotoxicity against human SF539 cells assessed as cell growth inhibition after 48 hrs by SRB assay; format: functional, cell-based; details: SF-539, 48 h
# SNB-19 = assay: Cytotoxicity against human SNB19 cells assessed as cell growth inhibition after 48 hrs by SRB assay; format: functional, cell-based; details: SNB-19, 48 h
# OVCAR-8 = assay: Cytotoxicity against human OVCAR8 cells assessed as cell growth inhibition after 48 hrs by SRB assay; format: functional, cell-based; details: OVCAR-8, 48 h
# HOP-62 = assay: Cytotoxicity against human HOP62 cells assessed as cell growth inhibition after 48 hrs by SRB assay; format: functional, cell-based; details: HOP-62, 48 h
# Liver = assay: Antioxidant activity in rat liver microsomal membranes assessed as inhibition of Fe(2+)/ascorbate-induced lipid peroxidation; format: functional, microsomes, microsome
# MCF7 [11] = assay: Cytotoxicity against human MCF7 cells assessed as inhibition of cell growth after 72 hrs by SRB assay; format: functional, cell-based; details: MCF7, 72 h
# HCT-116 [12] = assay: Cytotoxicity against human HCT116 cells assessed as inhibition of cell growth after 72 hrs by SRB assay; format: functional, cell-based; details: HCT-116, 72 h
# PC-3 [13] = assay: Cytotoxicity against human PC3 cells assessed as inhibition of cell growth after 72 hrs by SRB assay; format: functional, cell-based; details: PC-3, 72 h
# HepG2 = assay: cells; details: Homo sapiens, HepG2, 72 h
# Description: Cytotoxicity against human HepG2 cells assessed as inhibition of cell growth after 72 hrs by SRB assay
# Escherichia coli = assay: Antibacterial activity against Escherichia coli by CLSI protocol based method; format: functional
# Aspergillus niger = assay: Antifungal activity against Aspergillus niger by CLSI protocol based method; format: functional
# OVCAR-3 = assay: Cytotoxicity against human OVCAR3 cells assessed as cell growth inhibition after 48 hrs by SRB assay; format: functional, cell-based; details: OVCAR-3, 48 h
# Malme-3M = assay: Cytotoxicity against human MALME-3M cells assessed as cell growth inhibition after 48 hrs by SRB assay; format: functional, cell-based
# MCF7 [14] = assay: Cytotoxicity against human MCF7 cells assessed as cell growth inhibition after 48 hrs by SRB assay; format: functional, cell-based; details: MCF7, 48 h
# SR = assay: Cytotoxicity against human SR cells assessed as cell growth inhibition after 48 hrs by SRB assay; format: functional, cell-based
# SF-268 = assay: Cytotoxicity against human SF268 cells assessed as cell growth inhibition after 48 hrs by SRB assay; format: functional, cell-based; details: SF-268, 48 h
smiles,measurement,setting,value
O=c1[nH]c2c(Cl)ccc(Cl)c2c2c1Sc1cc(Cl)ccc1N2,MIC,[1],> 6.25 µg/mL
same,inhibition of growth at 6.25 µg/mL,[2],67%
CCN(c1cnc2sc3c4c(=O)c5c(O)c(C)c6c(c5c-3nc2c1)C(=O)[C@@](C)(O/C=C/[C@H](OC)[C@@H](C)[C@@H](OC(C)=O)[C@H](C)[C@H](O)[C@H](C)[C@@H](O)[C@@H](C)/C=C/C=C(/C)C(=O)N4)O6)C(C)C,MIC,[3],0.005 µg/mL
c1ccc(N2c3nc4ccccc4cc3Sc3cc4ccccc4nc32)nc1,inhibition of growth at 10 µM,UO-31 [4],57 to 73%
same,inhibition of growth at 10 µM,SK-MEL-2,61%
CN1c2ccncc2Sc2ccncc21,inhibition of growth at 2.1 µg/mL,UO-31 [5],60%
same,inhibition of growth at 2.1 µg/mL,EKVX; read-out: GI,51%
O=C(NCCCl)NCCN1c2nc3ccccc3cc2Sc2cc3ccccc3nc21,IC50,HCT-116 [6],250 to 1000 nM
same,IC50,PC-3 [7],250 to 1000 nM
same,IC50,SK-MEL-5,87 nM
same,IC50,CCRF-CEM,250 to 1000 nM
same,IC50,MOLT-4,250 to 1000 nM
same,IC50,SNB-75,250 to 1000 nM
same,IC50,SF-295,250 to 1000 nM
same,IC50,NCI-H460,250 to 1000 nM
same,IC50,HOP-92,250 to 1000 nM
same,IC50,IGROV-1,250 to 1000 nM
same,IC50,OVCAR-4,250 to 1000 nM
same,IC50,OVCAR-5,250 to 1000 nM
same,IC50,786-0,250 to 1000 nM
c1ccc2c(c1)Nc1nccnc1S2,IC50,[8],1 to 5 µg/mL
same,inhibition at 10 µg/mL,Trachea,85%
same,inhibition in vivo at 10 mg/kg,Rattus norvegicus,70%
CCCCN1c2nc3ccccc3cc2Sc2cc3ccccc3nc21,inhibition of growth at 10 µM,MCF7 [9],93%
same,inhibition of growth at 10 µM,T47D,86%
same,inhibition of growth at 10 µM,UO-31 [4],78%
O=[N+]([O-])c1ccc(N2c3ccncc3Sc3ccncc32)cc1,inhibition of growth at 3.2 µg/mL,UO-31 [10],44%
c1cc2c(cn1)Nc1ccncc1S2,inhibition at 1 µg/mL,PBMC,72%
same,IC50,COLO 205,2.4 µg/mL
same,IC50,HCT-116 [6],3.6 µg/mL
same,IC50,RXF 393,3.1 µg/mL
same,IC50,ACHN,5.4 µg/mL
same,IC50,HL-60,4.1 µg/mL
same,IC50,Hs-578T,5.9 µg/mL
same,IC50,M14,6.5 µg/mL
same,IC50,SF-539,6.8 µg/mL
same,IC50,SNB-19,6.8 µg/mL
same,IC50,OVCAR-8,7.1 µg/mL
same,IC50,PC-3 [7],8.4 µg/mL
same,IC50,HOP-92,1.7 µg/mL
same,IC50,786-0,3.9 µg/mL
same,IC50,HOP-62,0.3 µg/mL
same,IC50,Liver,64000 nM
COc1ccc(-c2c3c(N)c4c(nc3nc3[nH]nc(-c5ccccc5)c23)Sc2ccccc2N4)cc1,IC50,MCF7 [11],34500 to 36500 nM
same,IC50,HCT-116 [12],34500 to 36500 nM
same,IC50,PC-3 [13],34500 to 36500 nM
same,IC50,HepG2,19100 nM
CCSc1ncc2c(n1)N=c1c(Cl)c3c(c(Cl)c1S2)=Nc1nc(SCC)nc(O)c1S3,MIC,Escherichia coli,169 µg/mL
same,MIC,Aspergillus niger,138 µg/mL
[Cl-].c1ccc2nc3c(cc2c1)Sc1cc2ccccc2[n+]2c1N3CC2,IC50,COLO 205,1.3 µg/mL
same,IC50,RXF 393,5 µg/mL
same,IC50,PC-3 [7],10 µg/mL
same,IC50,SK-MEL-5,1.5 µg/mL
same,IC50,NCI-H460,7.4 µg/mL
same,IC50,EKVX,7.6 µg/mL
same,IC50,OVCAR-3,7.8 µg/mL
same,IC50,Malme-3M,1.3 µg/mL
same,IC50,MCF7 [14],3.2 µg/mL
same,IC50,SR,4.9 µg/mL
same,IC50,SF-268,8.5 µg/mL
